{"source": "patent EP2229935A1", "about": "“Peptide derivatives or pharmaceutically acceptable salts thereof, method for producing the same, use of said derivatives and pharmaceutical composition” (Nebolsin, Vladimir Evgenievich, priority 1997, dated 1999)", "key": {"mongrel white male mice": {"system": "mongrel white male mice", "experiment": "Delayed type hypersensitivity induced by sheep red blood cells", "type": "in vivo", "details": "DTH to sheep red blood cells; for Difference in paw masses: 24 hours; for Percent to the control / Reaction index, percent: oral", "protocol": "Studies were cartried out on mongrel white male mice with initial body mass 22-24 g. Each group included 10 animals. Mice were sensitized with intravenous injection of the suspension of 2 x 10^5 sheep red blood, cells in 0.05 ml normal saline. By day 5, the suspension of 10^8 sheep red blood cells in 0.05 ml normal saline was injected into the hind paw pad. As a control, the solvent, i.e. normal saline in equivalent amount, was injected. Reaction intensity was assessed in 24 hours by difference in the paw masses of animals. Reaction index = (Mt -Mc)/(Mc)x 100 [formula]\nThe test compound III was orally administered for three days at doses 50 and 500 µg/kg according to the dosage regimen - days 3, 4 and 5, day 5 - administration of the anaphylaxis-provoking dose."}, "[1]": {"system": "Strain Aichi of type A human influenza virus", "type": "in vivo", "details": "for Survival rate in percent: series with Control - 2 (34.5); for Protection degree in percent: series with Control - 2"}, "[2]": {"system": "lipid peroxidation (LP) products", "experiment": "Antioxidant activity in vivo: acute toxic hepatic lesion with CCl4", "details": "rats, CCl4 3 days; for Liver, MDA, nM/mg of tissue / Liver, diene conjugates, E232/mg of tissue / Liver, diene ketones, trienes E278/mg of tissue: intragastral", "protocol": "Antioxidant activity was studied in an in vivo experiment on the model of acute toxic hepatic lesion with carbon quadrichloride (CCl4).\nExperiment was carried out on 40 mongrel male rats with initial body mass 190-200 g fed a standard vivarium ration. Each group included 10 animals. Hepatic lesion (experimental hepatitis) was induced in animals by intragastral administration of 0.25 ml per 100 g of body mass CCl4 in the form of 50% solution in vaseline oil for 3 days [Vengerovsky A.I., Chuchalin V.S., Pauls O.V., Saratikov A.S. Effect of hepatoprotectors on lipid metabolism in hepatitis induced by Ccl4. Bulletin of Experimental Biology (1987), No 4, pp. 430-432]. […] Animals of the control group were administered CCl4 as described above (group 2). Intact animals were orally given normal saline in an equivalent amount (group 1).\nThe content of primary lipid peroxidation (LP) products - diene conjugates, diene ketones and trienes - were determined using the published method [Volchegorsky I.A., Nalimov A.G., Yarovinsky B.G., Lifshits R.I. Comparison of different approaches to determining lipid peroxidation products in heptane-isopropanolic blood extracts. Voprosy Meditsinskoy Chimii (Problems of Medical Chemistry) (1989),No 1, pp. 127-131]. Content calculation of LP products was done correlating the values of respective extinctions with 1 ml of test sample.\nThe amount of LP final product - malonic dialdehyde (MDA) - was determined by the test with thiobarbituric acid (TBA) [Korobeinikova E.N. Modification of lipid peroxidation products in the reaction with thiobarbituric acid. Laboratornoye delo (Laboratory Matter) (1989), No 7, pp. 8-10]. Concentration of TBA-active product was calculated using regression equation. MDA content in the liver of experimental animals was assessed using the modified method [Stalnaya I.D., Garishvili T.G. The method of determining malonic dialdehyde using thiobarbituric acid. In: Modem methods in biochemistry. Moscow, Meditsina publishers. (1977), pp. 66-69], performing preliminary extraction of lipids according to Folch [Cates M. Technology of Lipidology. Moscow, Mir publishers (1975), pp. 74-76]."}, "P-450 and B5 cytochromes": {"system": "P-450 and B5 cytochromes", "experiment": "Hepatic content of P-450 and B5 cytochromes (microsomal liver fraction)", "type": "in vivo, guinea pigs", "details": "guinea pig liver microsomes; administered three times 72, 48 and 24 hours before", "protocol": "Change in hepatic monooxygenase system was studied on mongrel male guinea pigs with initial mass 250-300 g; each group included 12 animals. […]. The content of P-450 and […] cytochromes was measured according to the published method [Omura T., Scato R. The monooxide binding pigment of liver microsomes. 11. Solubilization, purification and properties. J. Chem. (1964), Vol. 239, pp. 2379-2385] in microsomal liver fraction, isolated using differential centrifugation method [Ahokas J., Pelkonen O., Karkin N. Charcaterisation of BP-hydroxylase of Trout-liver. Cancer Res. (1977), Vol. 37, pp. 3737-3743]. The priority method {Izotov M.V., Scherbakov V.M., Devichensky V.M. et al. The method of determining the content of P-450 cytochrome isoenzymes in liver microsomes. The inventor's certificate No 1,488,738. B.I. (1989), No 3.-6.06.09, ICI, 01. - No 33/15, No 33/48]. Microsomal protein content was determined using the modified Lowry method [Hartree E. Determination of protein: a modification of the Lowry method, that gives a linear photometric responces. Ann. Biochem. (1972), Vol. 48, pp. 422-427]."}, "white mongrel male rats": {"system": "white mongrel male rats", "experiment": "Carrageenan paw edema, oral administration (series I)", "type": "in vivo", "protocol": "Experiment was carried out on white mongrel male rats weighing 280-300 g. Carrageenan-induced edema was caused according to the method of Winter et al. [[inter et al. In: De Rosa M., Giroud J.P., Willoughby D.A. Studies of the mediators of the acute inflammatory reponse induced in rats in different sites by carrageenan and turpentine. […] Paw volume measurement was done using a plethysmograph (Ugo Basile) 1, 3 and 4 hours after carrageenan administration. Inhibition of inflammatory reaction expressed in percent, was calculated according to the formula: 100-[(R-L(exper.))/(L):(R-L(control))/(L)x100](%) [formula] where R - the right paw volume, L - the left paw volume.\nSeries I of experiment. […] The reference drug Naproxene was once administered at a dose 20 µg/kg 1 hour before edema induction. Each group included 10 animals."}, "[3]": {"details": "intragastral four times 50 µg/kg"}}, "note": "Where two headings read alike, the source gives them in different places. Marks after values point to notes of the source that are not given here.", "data": [{"smiles": "O=C(O)CCCC(=O)NCCc1c[nH]cn1", "note": "[compound III, N-GLUTARYLHISTAMINE]", "values": [{"measurement": "Difference in paw masses", "setting": "mongrel white male mice; oral days 3, 4, 5, 50 µg/kg", "result": "16.7 ± 1.9", "unit": "g"}, {"measurement": "Difference in paw masses", "setting": "mongrel white male mice; oral days 3, 4, 5, 500 µg/kg", "result": "17.2 ± 1.3", "unit": "g"}, {"measurement": "Percent to the control", "setting": "mongrel white male mice; 50 µg/kg", "result": 75.5, "unit": "%"}, {"measurement": "Reaction index, percent", "setting": "mongrel white male mice; 50 µg/kg", "result": "10.3 ± 1.1", "unit": "%"}, {"measurement": "Percent to the control", "setting": "mongrel white male mice; 500 µg/kg", "result": 79.3, "unit": "%"}, {"measurement": "Reaction index, percent", "setting": "mongrel white male mice; 500 µg/kg", "result": "10.8 ± 0.8", "unit": "%"}, {"measurement": "MLT", "setting": "[1]; series with Control - 2 (9.1), 50 µg/kg orally, 3 days before and 10 days following infection", "result": 10.1, "unit": "days"}, {"measurement": "MLT, days", "setting": "[1]; series with Control - 2 (9.1), 500 µg/kg orally, 3 days before and 10 days following infection", "result": "11.5*^2 days"}, {"measurement": "Survival rate in percent", "setting": "[1]; 50 µg/kg orally", "result": "86.6*^2%"}, {"measurement": "Survival rate in percent", "setting": "[1]; 500 µg/kg orally", "result": "76.6*^2%"}, {"measurement": "Protection degree in percent", "setting": "[1]; 50 µg/kg orally", "result": 52.1, "unit": "%"}, {"measurement": "Protection degree in percent", "setting": "[1]; 500 µg/kg orally", "result": 42.2, "unit": "%"}, {"measurement": "Blood serum, MDA, nM/ml", "setting": "[2]; intragastral 3 days with CCl4, 50 µg/kg", "result": "4.05 ± 0.198*^2 nM/ml"}, {"measurement": "Blood serum, MDA, nM/ml", "setting": "[2]; intragastral 3 days with CCl4, 500 µg/kg", "result": "3.89 ± 0.11**^2 nM/ml"}, {"measurement": "Liver, MDA, nM/mg of tissue", "setting": "[2]; 50 µg/kg", "result": "4.98 ± 0.13**^2 nM/mg of tissue"}, {"measurement": "Liver, diene conjugates, E232/mg of tissue", "setting": "[2]; 50 µg/kg", "result": "16.25 ± 0.61 E232/mg of tissue"}, {"measurement": "Liver, diene ketones, trienes E278/mg of tissue", "setting": "[2]; 50 µg/kg", "result": "8.42 ± 0.25**^2 E278/mg of tissue"}, {"measurement": "Liver, MDA, nM/mg of tissue", "setting": "[2]; 500 µg/kg", "result": "5.01 ± 0.17**2 nM/mg of tissue"}, {"measurement": "Liver, diene conjugates, E232/mg of tissue", "setting": "[2]; 500 µg/kg", "result": "15.89 ± 0.38 E232/mg of tissue"}, {"measurement": "Liver, diene ketones, trienes E278/mg of tissue", "setting": "[2]; 500 µg/kg", "result": "8.24 ± 0.19*^2 E278/mg of tissue"}, {"measurement": "B5 /P-450", "setting": "P-450 and B5 cytochromes", "result": "0.97*"}, {"measurement": "B5 cytochrome nM/mg of protein", "setting": "P-450 and B5 cytochromes", "result": "1.00 ± 0.03 nM/mg of protein"}, {"measurement": "P-450B cytochromes nM/mg of protein", "setting": "P-450 and B5 cytochromes", "result": "0.72 ± 0.02 nM/mg of protein"}, {"measurement": "P-450B/p-450L", "setting": "P-450 and B5 cytochromes", "result": "2.32**"}, {"measurement": "Inflammation inhibition (%)", "setting": "white mongrel male rats; [3]", "result": 30, "unit": "%"}, {"measurement": "Volume increment", "setting": "white mongrel male rats; [3]", "result": "0.49 ± 0.07"}, {"measurement": "Volume of paws (conditional units) left", "setting": "white mongrel male rats; [3]", "result": "1.23 ± 0.41", "unit": "conditional units"}, {"measurement": "Volume of paws (conditional units) Right", "setting": "white mongrel male rats; intragastral four times 50 µg/kg 72, 48, 24 and 1 hour before", "result": "1.72 ± 0.27", "unit": "conditional units"}]}]}
